These results are taken from patent publication US12448383B2, “Compounds and methods for treatment of viral infections” (priority 2022, dated 2025).

Series [1] concerns Respiratory syncytial virus recombinant with luciferase (RSV-Luc5) in HEp-2 cells. The series is described as follows: microbe, parasite or virus in culture. The format is cell-based. Particulars: human respiratory syncytial virus, HEp-2, 72 h, read-out: RSV Hep2 EC50.
Series [2] has as its system SARS Coronavirus 2 recombinant with NanoLuc (SARS-CoV2-NLuc) in A549-hACE2 cells. The series is described as follows: organism not typed. The format is cell-based. The conditions noted are these: 48 h; read-out: SARS-CoV2 EC50.
The nature of series [3]: CC50 MT4 cytotoxicity (Cell-Titer Glo). Particulars: human. It counts as cell-based. The procedure:
Cytotoxicity of the compounds was determined in uninfected cells using the cell viability reagent in a similar fashion as described before for other cell types (Cihlar et al., Antimicrob Agents Chemother. 2008, 52(2):655-65). HEp-2 (1.5×10^3 cells/well) and MT-4 (2×10^3 cells/well) cells were plated in 384-well plates and incubated with the appropriate medium containing 3-fold serially diluted compound ranging from 15 nM to 100,000 nM. Cells were cultured for 4-5 days at 37° C. Following the incubation, the cells were allowed to equilibrate to 25° C., and cell viability was determined by adding Cell-Titer Glo viability reagent. The mixture was incubated for 10 min, and the luminescence signal was quantified using an Envision plate reader. Untreated cell and cells treated at 2 μM puromycin (Sigma, St. Louis, MO) serve as 100% and 0% cell viability control, respectively. The percent of cell viability was calculated for each tested compound concentration relative to the 0% and 100% controls and the CCso value was determined by non-linear regression as a compound concentration reducing the cell viability by 50%.

Series [4] concerns Respiratory syncytial virus recombinant with luciferase (RSV-Luc5) in Normal Human Bronchial Epithelial (NHBE) cells. The series is described as follows: microbe, parasite or virus in culture. It counts as cell-based. The conditions noted are these: 72 h, read-out: RSV NHBE EC50.
Series [5] concerns Caco-2 cells (clone C2BBe1). The series is described as follows: CACO-2 permeability. It counts as in vitro ADME. Also noted: unit not given here. The conditions noted are these: for DM Caco2 A to B: apical to basolateral, donor pH 6.5, receiver pH 7.4; for DM Caco2 B to A: basolateral to apical. The protocol:
Pre-plated Caco-2 cells (clone C2BBel) were obtained from Sigma-Aldrich, Inc. (Atlanta, GA). Cell monolayers were grown to confluence on collagen-coated, microporous, polycarbonate membranes in 24-well transwell plates for 21 days. The permeability assay buffer in donor wells was Hanks' balanced salt solution (HBSS) containing 10 mM HEPES and 15 mM glucose at a pH of 6.5 containing 200 μM BNPP. The receiver wells used HBSS buffer containing 10 mM HEPES and 15 mM glucose at a pH of 7.4 and supplemented with 1°% BSA. After an initial equilibration with transport buffer, TEER values were read to test membrane integrity. The experiment was started by the addition of buffers containing test compounds, 200 μl and 1000 μl in the apical and basolateral chamber, respectively. At 0- and 2-hour post dose, 10 μL was sampled from donor compartment and was immediately diluted in 190 μL of 20% methanol. At 1 and 2 hours post dose, 100 μl of solution was taken from the receiver compartments and was immediately diluted in 100 μl of 20% methanol. Removed buffer was replaced with fresh buffer and a correction was applied to all calculations for the removed material. Each compound was tested in 2 separate replicate wells for each condition. All samples were then extracted with 400 μl 100% acetonitrile with internal standard to precipitate protein. Cells were dosed on the apical or basolateral side to determine forward (A to B) and reverse (B to A) permeability. To test for non-specific binding and compound instability, the total amount of drug was quantitated at the end of the experiment and compared to the material present in the original dosing solution as a percent recovery. […] Samples were analyzed by LC-MS/MS.

A further series can be described thus: Plasma stability. It counts as in vitro ADME. Also noted: unit not given here. Particulars: 37° C., 2 μM substrate. The protocol: At 0.05, 0.5, 1, 2, 3 and 4 hr, […] aliquots of the reaction mixture were transferred to plates containing […] of IS/Q quenching solution. After quenching, the plates were centrifuged at 3000 g for 30 minutes, and 150 μL supernatant was diluted with 150 μL water. Aliquots ([…]) of the diluted supernatant were analyzed on a Thermo Q-Exactive mass spectrometer as described below.
Mobile phase A consisted of 0.1% (v/v) formic acid in water. Mobile phase B consisted of 0.1% (v/v) formic acid in acetonitrile. Elution of analytes was achieved by a series of linear gradients of acetonitrile in water containing 0.1°(v/v) formic acid. The mass spectrometer was calibrated on a weekly basis and mass tolerance of 5 ppm was used.

Series [6] can be described thus: GI S9 stability - no PMSF. Particulars: pH 7.4; human intestinal S9, PMSF-free; read-out: GIS9-HUMAN-NoPMSF T1/2. The format is in vitro ADME. The procedure: Duplicate aliquots of test compound or positive control substrate (GS-7340) were added to S9 stock diluted with 100 mM phosphate buffered saline, pH 7.4, to obtain a protein concentration of 1.0 mg/mL. The S9 metabolic reactions were initiated by the addition of the substrates to the S9 reaction mixture to a final concentration of 2 μM. At 0, 10, 20, 30, 60 and 120 min, […] aliquots of the reaction mixture were transferred to plates containing […] of IS/Q solution. After quenching, the plates were centrifuged at 3000 g for 30 minutes, and 150 μL aliquots of each supernatant were diluted with 150 μL water. Aliquots ([…]) of the diluted supernatant were analyzed on a Thermo Q-Exactive mass spectrometer as described below. GI S9 Stability—No phenylmethylsulfonyl fluoride (PMSF): Similar to the procedure described above, test compounds were incubated at 2 μM with 1 mg/mL PMSF-free Intestinal S9 fractions. Samples are removed at 6 time points over the course of a 120 min experiment and the parent compound disappreance and reference compound A formation is determined by mass spectrometry.
Example K: Liquid Chromatography/Mass Spectroscopy Methods for S9 and Plasma Stability
Quantification of test compounds, Reference Compound A (S9 stability assay nucleoside metabolite), and controls was performed by analyte/internal standard peak area ratio (PAR) values measured on a Thermo Q-Exactive mass spectrometer coupled to a Dionex UltiMate 3000 HPLC with a Leap Technologies HTC PAL autosampler. The column used for analysis of test compounds and Reference Compound A was a Waters Acquity BEH C18 ([…] particle size, 2.1′50 mm). The column used for control (GS-7340) was a Thermo Hypersil GOLD ([…] particle size, 2.1′50 mm). Mobile phase A consisted of 0.1% (v/v) formic acid in water. Mobile phase B consisted of 0.1% (v/v) formic acid in acetonitrile. Elution of analytes was achieved by a series of linear gradients of acetonitrile in water containing 0.1°(v/v) formic acid. The mass spectrometer was calibrated on a weekly basis and mass tolerance of 5 ppm was used.

On to `CC(C)COC(=O)OC[C@H]1O[C@@](C#N)(c2ccc3c(N)ncnn23)[C@@H]2OC(=O)O[C@@H]21` [Compound 17, ((3aR,4R,6R,6aR)-6-(4-aminopyrrolo[2,1-f][1,2,4]triazin-7-yl)-6-cyano-2-oxotetrahydrofuro[3,4-d][1,3]dioxol-4-yl)methyl isobutyl carbonate], for which the EC50 in series [1] is 0.412 µM; in series [2], 0.814 µM; in series [4] it was 1.9 µM. Besides, the CC50 in series [3] is > 50 µM.

Consider `CC(C)(C)COC(=O)OC[C@H]1O[C@@](C#N)(c2ccc3c(=N)n(COP(=O)(O)OCc4ccccc4)cnn23)[C@H](O)[C@@H]1O` [Compound 18, ((2R,3S,4R,5R)-5-(3-((((benzyloxy)(hydroxy)phosphoryl)oxy)methyl)-4-imino-3,4-dihydropyrrolo[2,1-f][1,2,4]triazin-7-yl)-5-cyano-3,4-dihydroxytetrahydrofuran-2-yl)methyl neopentyl carbonate], for which the results for the EC50 in series [1], in series [2] and in series [4] were 2.87 µM, 12.4 µM and 12.1 µM, respectively. The cytotoxic concentration (CC50) in series [3] is > 50 µM.

Regarding `N#C[C@@]1(c2ccc3c(N)ncnn23)O[C@H](COC(=O)OC2CNC2)[C@@H](O)[C@H]1O` [Compound 20, ((2R,3S,4R,5R)-5-(4-aminopyrrolo[2,1-f][1,2,4]triazin-7-yl)-5-cyano-3,4-dihydroxytetrahydrofuran-2-yl)methyl azetidin-3-yl carbonate], the EC50 was determined as 2.02 µM in series [1], 8.98 µM in series [2] and 4.35 µM in series [4]. The CC50 in series [3] was > 50 µM.

Regarding `Cc1oc(=O)oc1COC(=O)OC[C@H]1O[C@@](C#N)(c2ccc3c(N)ncnn23)[C@H](O)[C@@H]1O` [Compound 26, ((2R,3S,4R,5R)-5-(4-aminopyrrolo[2,1-f][1,2,4]triazin-7-yl)-5-cyano-3,4-dihydroxytetrahydrofuran-2-yl)methyl ((5-methyl-2-oxo-1,3-dioxol-4-yl)methyl) carbonate], the EC50 worked out at 0.942 µM in series [1], 2.39 µM in series [2] and 0.844 µM in series [4]. The “DM Caco2 A to B” value in series [5] stood at 0.07. For the same molecule, the “DM Caco2 B to A” value in series [5] is given as 0.36. Further, in “Plasma stability”, the “STA Human Plasma 37” value is listed as 33.7. For the same molecule, the CC50 in series [3] was > 50 µM. Also, the half-life at 2 µM in series [6] was found to be 29.2 s.

Consider `CCCCCOC(=O)OC[C@H]1O[C@@](C#N)(c2ccc3c(N)ncnn23)[C@H](O)[C@@H]1O` [Compound 27, ((2R,3S,4R,5R)-5-(4-aminopyrrolo[2,1-f][1,2,4]triazin-7-yl)-5-cyano-3,4-dihydroxytetrahydrofuran-2-yl)methyl pentyl carbonate], for which the EC50 is 0.145 µM in series [1], 0.658 µM in series [2] and 1.01 µM in series [4]. For the same molecule, the CC50 in series [3] was > 50 µM.

On to `N#C[C@@]1(c2ccc3c(N)ncnn23)O[C@H](COC(=O)OCC2CCCC2)[C@@H](O)[C@H]1O` [Compound 85, ((2R,3S,4R,5R)-5-(4-aminopyrrolo[2,1-f][1,2,4]triazin-7-yl)-5-cyano-3,4-dihydroxytetrahydrofuran-2-yl)methyl (cyclopentylmethyl) carbonate], for which the EC50 in series [1] was 0.166 µM; in series [2], 0.417 µM; in series [4], 0.776 µM. The “STA Human Plasma 37” value in “Plasma stability” amounted to 38.6. The cytotoxic concentration (CC50) in series [3] was > 50 µM. For the same molecule, the half-life at 2 µM in series [6] worked out at 37.3 s.

As to `N#C[C@@]1(c2ccc3c(N)ncnn23)O[C@H](COC(=O)OCC2CCCCC2)[C@@H](O)[C@H]1O` [Compound 86, ((2R,3S,4R,5R)-5-(4-aminopyrrolo[2,1-f][1,2,4]triazin-7-yl)-5-cyano-3,4-dihydroxytetrahydrofuran-2-yl)methyl (cyclohexylmethyl) carbonate], the concentration for a half-maximal effect (EC50) amounted to 0.371 µM in series [1], 0.623 µM in series [2] and 1.22 µM in series [4]. The “STA Human Plasma 37” value in the series “Plasma stability” is recorded as 48.6. In series [3], the half-maximal cytotoxic concentration (CC50) was > 50 µM. For the same molecule, the half-life at 2 µM in series [6] came out at 41 s.

In the case of `CC[C@@H](C)OC(=O)OC[C@H]1O[C@@](C#N)(c2ccc3c(N)ncnn23)[C@H](O)[C@@H]1O` [Compound 89, ((2R,3S,4R,5R)-5-(4-aminopyrrolo[2,1-f][1,2,4]triazin-7-yl)-5-cyano-3,4-dihydroxytetrahydrofuran-2-yl)methyl ((R)-sec-butyl) carbonate], the results for the concentration for a half-maximal effect (EC50) in series [1], in series [2] and in series [4] were 0.665 µM, 2.69 µM and 0.978 µM, respectively. Moreover, in the series “Plasma stability”, the “STA Human Plasma 37” value is listed as 188.5. Further, the half-maximal cytotoxic concentration (CC50) in series [3] was > 50 µM. The half-life at 2 µM in series [6] amounted to 35.4 s.

Regarding `CC(C)OC(=O)OC[C@H]1O[C@@](C#N)(c2ccc3c(N)ncnn23)[C@@H]2OC(c3ccccc3)O[C@@H]21` (stereo partly drawn) [Compound 100, [(3aR,4R,6R,6aR)-4-(4-aminopyrrolo[2,1-f][1,2,4]triazin-7-yl)-4-cyano-2-phenyl-6,6a-dihydro-3aH-furo[3,4-d][1,3]dioxol-6-yl]methyl isopropyl carbonate], the EC50 in series [1] is > 50 µM. In series [5], the “DM Caco2 A to B” value is given as 11.73 and the “DM Caco2 B to A” value was found to be 22.71. Further, the half-maximal cytotoxic concentration (CC50) in series [3] was > 50 µM. For the same molecule, the half-maximal effective concentration (EC50) in series [4] was found to be 16 µM.

As to `C=CCCOC(=O)O[C@H]1[C@@H](OC(=O)OCCC=C)[C@](C#N)(c2ccc3c(N)ncnn23)O[C@@H]1COC(=O)OC(C)C` [Compound 136, (2R,3R,4R,5R)-2-(4-aminopyrrolo[2,1-f][1,2,4]triazin-7-yl)-2-cyano-5-(((isopropoxycarbonyl)oxy)methyl)tetrahydrofuran-3,4-diyl di(but-3-en-1-yl) bis(carbonate)], the “DM Caco2 A to B” value in series [5] stood at 4.33. For the same molecule, the “DM Caco2 B to A” value in series [5] is 5.7. The EC50 in series [2] was determined as 4.7 µM; in series [4], 2.03 µM. For the same molecule, in “Plasma stability”, the “STA Human Plasma 37” value was found to be 463.08. In addition, the half-maximal cytotoxic concentration (CC50) in series [3] was > 50 µM. The half-life at 2 µM in series [6] came out at 60.8 s.
